From US20250160366A1, “MEANS AND METHODS FOR MODULATING SECONDARY METABOLITE IN AN ANIMAL” (DSM IP Assets B.V., priority 2022, published 2025)

Columns and labels:
[1] = OP at 1000 mg/kg feed, positive control 30 g GABA per ton of feed
[2] = GABA supplementation at 30 g/MT; Li et al. 2015, Bi et al. 2020; cited from earlier work
[3] = in mice; cited from earlier work

For `NCCCC(=O)O` [GABA, Gamma-aminobutyric acid], the “fold change (compared to day 0) of plasma COR as stress indicator” value [1] was 0.70, the “fold change (compared to day 0) of plasma NPY as stress-resistance indicator” value [1] was 0.51 and the “plasma GABA fold change compared to day 0” value ([1]; day 12) was 1.07. The biting incidences [2] was “lower”, the growth performance [2] was “increase” and the stress-related parameters [2] was “improve”. For the same compound, the “half-life of GABA in the body” value [3] was “less than 17 min”.
